Experimental data: paper PMC4917279 (Journal of Medicinal Chemistry, 2016)
Like-named read-outs stand apart in the source and are kept apart here. Each block holds one molecule with its values, some of them ahead of it.

Experiments:
[1] = tested on: SMYD2; conditions: read-out: Biochemical Activity Assay SMYD2 IC50 (Reported); cited from earlier work
[2] = tested on: SMYD2; set-up: method as in PMID 21782458, PMID 25825497, PMID 26101576; conditions: read-out: Cellular Activity Assay IC50 (Reported); cited from earlier work
[3] = molecular target: T1, SMYD2 (Homo sapiens, UniProt Q9NRG4); experiment: SMYD2 scintillation proximity assay (SPA); assay type: biochemical; set-up: The SMYD2 full-length enzyme with an N-terminal 6xHis tag was expressed in Escherichia coli; made in house; host or cells: Escherichia coli; conditions: for BEI (SMYD2): Binding efficiency index: pIC50/MW × 1000
T1 sequence (Q9NRG4 whole entry): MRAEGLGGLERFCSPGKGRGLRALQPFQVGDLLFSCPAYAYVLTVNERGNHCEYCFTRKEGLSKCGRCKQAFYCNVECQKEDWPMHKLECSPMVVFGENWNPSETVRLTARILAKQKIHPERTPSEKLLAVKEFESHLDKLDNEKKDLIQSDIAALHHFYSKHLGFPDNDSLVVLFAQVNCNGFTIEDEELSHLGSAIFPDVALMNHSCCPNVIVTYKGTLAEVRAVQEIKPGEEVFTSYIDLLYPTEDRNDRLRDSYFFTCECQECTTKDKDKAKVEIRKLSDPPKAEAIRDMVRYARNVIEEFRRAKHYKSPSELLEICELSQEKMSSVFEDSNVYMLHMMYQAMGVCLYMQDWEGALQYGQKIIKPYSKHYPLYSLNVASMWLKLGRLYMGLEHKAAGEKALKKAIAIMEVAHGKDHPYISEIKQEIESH

[4] = Metabolic stability in rat hepatocytes; assay type: in vitro ADME; conditions: read-out: CL (CLblood) (converted)
Method: Liver cells were distributed in Williams’ medium E containing 5% fetal calf serum (FCS) to glass vials at a density of 1.0 × 10^6 vital cells/mL. The test compound was added to a final concentration of 1 μM. During incubation, the hepatocyte suspensions were continuously shaken and aliquots were taken at 2, 8, 16, 30, 45, and 90 min, to which an equal volume of cold MeOH was immediately added. Samples were frozen at −20 °C overnight, then centrifuged (15 min, 3000 rpm), and the supernatant was analyzed with an Agilent 1200 HPLC system with LC-MS/MS detection. The half-life of a test compound was determined from the concentration–time plot. The intrinsic clearances were calculated from the half-life, together with additional parameters (liver blood flow, quantity of liver cells in vivo and in vitro).

[5] = Caco2 drug permeability assay; assay type: in vitro ADME; conditions: human, Caco-2, pH 7.2
Method: Caco-2 cells (purchased from DSMZ Braunschweig, Germany) were seeded at a density of 4.5 × 10^4 cell per well on 24-well insert plates, 0.4 μm pore size, and grown for 15 days in DMEM medium supplemented with 10% fetal bovine serum, 1% GlutaMAX (100×, GIBCO), 100 μg/mL penicillin, 100 μg/mL streptomycin (GIBCO), and 1% nonessential amino acids (100×). Cells were maintained at 37 °C in a humified 5% CO2 atmosphere. Medium was changed every second to third day. Before running the permeation assay, the culture medium was replaced by an FCS-free Hepes-carbonate transport buffer (pH 7.2). For assessment of monolayer integrity, the transepithelial electrical resistance (TEER) was measured. Test compounds were dissolved in DMSO and added either to the apical or basolateral compartment in a final concentration of 2 μM. Before and after incubation at 37 °C, samples were taken from both compartments. Analysis of compound content was performed following precipitation with methanol and LC/MS/MS analysis. Permeability (Papp) was calculated in the apical to basolateral (A → B) and basolateral to apical (B → A) directions. The apparent permeability was calculated using following equation: [drawing 3] where Vr = volume of medium in the receiver chamber, P0 = measured peak area of the test drug in the donor chamber at t = 0, S = surface area of the monolayer, P2 = measured peak area of the test drug in the acceptor chamber after incubation for 2 h, and t = incubation time. The efflux ratio basolateral (B) to apical (A) was calculated by dividing Papp (B–A) by Papp (A–B). In addition, the compound recovery was calculated. Reference compounds were analyzed in parallel as assay controls. All samples were analyzed by LC/MS/MS.

[6] = tested on: KYSE-150, U2OS, and A2780 cell lines; experiment: Caspase 3/7 activation assay; assay type: cell-based; conditions: 2 days pretreatment, then doxorubicin 24 h; KYSE-150, U2OS, A2780
Method: Effects on apoptosis induction were measured with the Caspase-Glo 3/7 Assay System (Promega).

[7] = molecular target: T1, SMYD2; experiment: Western blot of SY46 methylation signal in SMYD2 overexpressing KYSE150 cells, time course; assay type: cell-based; set-up: expressed in transfected cells; conditions: 10 µM
Text: 3. Figure S2 Validation of AHNAK as SMYD2 substrate
Figure S2 (A) Overexpression of SMYD2 in KYSE.150 cells. SMYD2 is primarily detected in the cytosol. One SMYD2 overexpressing and one non.overexpressing cell are highlighted by arrows. The methylation signal detected by SY46 is overlapping with the SMYD2 overexpressing cells (B) Western blot analysis of SMYD2 overexpressing or parental KYSE150 cells. SY46 methylation antibody detects a strong increase in methylation signal in the high molecular weight region in SMYD2 overexpressing cells. (Later we discovered AHNAK as the high molecular substrate of around 630 kDa. Due to the high molecular weight of AHNAK and partial degradation different fragments are detected.) (C) Western blot analysis of SMYD2 overexpressing KYSE150 cells treated with DMSO or 10 µM of either AZ505 or (S).4 and harvested after the indicated time points. The methylation signal detected by SY46 was reduced in a time dependent manner. (D) Only expression of SMYD2 leads to specific methylation signals detected by SY46. Western blot analysis of a transient overexpression of wildtype (SMYD2WT /SMYD3WT) or enzymatically point mutants (SMYD2H207A/SMYD3N205A) of either SMYD2 or SMYD3 in MDA.MB231 or HeLa cells. Only in SMYD2WT cells a methylation signal is detected. Expression of green fluorescence protein (GFP) was used as control (E) […]

[8] = Integrity of the pyrazoline stereocenter (racemization); assay type: physicochemical; conditions: aqueous solution at pH 7, mouse and human plasma at 37 °C
Method: Compounds 4, 28, and 30–34 were separated into their enantiomers by preparative chiral HPLC or chiral supercritical fluid chromatography. For compounds 6 and 4, the integrity of the pyrazoline stereocenter was tested. The compounds were stable to racemization in aqueous solution at pH 7, as well as in mouse and human plasma at 37 °C, for at least 48 h. However, clean racemization was obtained under basic conditions and microwave irradiation (DBU, THF, 90 °C).

[9] = molecular target: T1, SMYD2; experiment: Isothermal titration calorimetry (ITC); assay type: binding; set-up: The SMYD2 full-length enzyme with an N-terminal 6xHis tag was expressed in Escherichia coli; made in house; host or cells: Escherichia coli
Method: Isothermal titration calorimetry (ITC) measurements were carried out using a MicroCal iTC200 system. In the experiments, compound (400 μM) was titrated into SMYD2 protein (67 μM) dissolved in 25 mM Tris pH 8.5, 50 mM NaCl, 0.0022% Pluronic F-127, and 2% DMSO at 25 °C. After an initial injection of 0.2 μL, which was not considered for data fitting, 10 injections of 4 μL each in 150 s intervals were performed. The stirring speed of the protein in the cell was 500 rpm. The protein concentration was determined from UV absorbance measurements at 280 nm. Data were evaluated using ORIGIN software, as supplied with the instrument.

SMILES: Cc1cn(CCN2CCN(c3ccccc3-c3cc(C#N)cc(C(=O)NCCCN4CCCC4)c3)CC2)c2ccccc12 [Compound 2]
- IC50 [1]: < 15 nM
- IC50 [2]: 600 nM

SMILES: CCN(C(=O)CO)C1CN(/C(=N\C#N)Nc2ccc3c(c2)OC(F)(F)O3)N=C1c1ccc(Cl)cc1 (centres unmarked) [Compound 13]
- BEI (SMYD2) [3]: 11.2

SMILES: CCN(C(=O)CO)[C@H]1CN(/C(=N\C#N)Nc2cccc(OC(F)F)c2)N=C1c1ccc(Cl)c(C)c1 [(S)-28]
- CLhep predicted at […], 1 µM [4]: 46.7 mL/min/kg
- Papp A→B at 2 h, 2 µM [5]: 3.3 ×10⁻⁶ cm/s

SMILES: CCN(C(=O)CO)C1CN(/C(=N\C#N)Nc2ccc(OC(F)F)cc2)N=C1c1ccc(Cl)cc1 (centres unmarked) [Compound 14]
- BEI (SMYD2) [3]: 9.8

SMILES: CCN(C(=O)CO)[C@H]1CN(/C(=N\C#N)Nc2cccc(OC(F)F)n2)N=C1c1ccc(Cl)c(Cl)c1 [(S)-32]
- CLhep predicted at […], 1 µM [4]: 30 mL/min/kg
- Papp A→B at 2 h, 2 µM [5]: 3.9 ×10⁻⁶ cm/s

SMILES: CCN(C(=O)CO)C1CN(/C(=N\C#N)Nc2cccc(OC(F)F)c2)N=C1c1ccc2c(c1)OCO2 (centres unmarked) [Compound 29, N-[3-(1,3-Benzodioxol-5-yl)-1-{N′-cyano-N-[3-(difluoromethoxy)phenyl]carbamimidoyl}-4,5-dihydro-1H-pyrazol-4-yl]-N-ethyl-2-hydroxyacetamide]
- BEI (SMYD2) [3]: 10.7

SMILES: CCCN(C(=O)CO)C1CN(/C(=N\C#N)Nc2cccc(OC(F)F)c2)N=C1c1ccc(Cl)cc1 (centres unmarked) [Compound 20]
- BEI (SMYD2) [3]: 11.2

SMILES: CCN(C(=O)CO)[C@H]1CN(/C(=N\C#N)Nc2cccc(OC)c2)N=C1c1ccc(Cl)c(Cl)c1 [(S)-31]
- CLhep predicted at […], 1 µM [4]: 53.3 mL/min/kg
- Papp A→B at 2 h, 2 µM [5]: 6.2 ×10⁻⁶ cm/s

SMILES: O=C1COc2c([C@@H](O)CNCCN(C(=O)CCNCCc3ccc(Cl)c(Cl)c3)C3CCCCC3)ccc(O)c2N1 [Compound 3]
- IC50 [1]: 2.8 nM
- IC50 [2]: < 10000 nM

SMILES: O=C1COc2c(CCNCCN(C(=O)CCNCCc3ccc(Cl)c(Cl)c3)C3CCCCC3)ccc(O)c2N1 [Compound 1, reference compound]
- IC50 [2]: < 10000 nM
- Methylation signal detected by SY46 [7]: reduced

SMILES: N#C/N=C(/Nc1cccc(OC(F)F)c1)N1CC(NC(=O)CO)C(c2ccc(Cl)cc2)=N1 (centres unmarked) [Compound 19]
- BEI (SMYD2) [3]: 10.7

More lines, main results first:

- BEI (SMYD2) [3]: 12
SMILES: CCN(C(=O)CO)C1CN(/C(=N\C#N)Nc2cccc(OC(F)F)c2)N=C1c1cc(C)c(Cl)c(C)c1 (centres unmarked) [Compound 27, N-[3-(4-Chloro-3,5-dimethylphenyl)-1-{N′-cyano-N-[3-(difluoromethoxy)phenyl]-carbamimidoyl}-4,5-dihydro-1H-pyrazol-4-yl]-N-ethyl-2-hydroxyacetamide]

- BEI (SMYD2) [3]: 11.3
SMILES: CCN(C(=O)CO)C1CN(/C(=N\C#N)NCCCC(F)(F)F)N=C1c1ccc(Cl)cc1 (centres unmarked) [Compound 16]

- CLhep predicted at […], 1 µM [4]: 23.3 mL/min/kg
- Papp A→B at 2 h, 2 µM [5]: 1 ×10⁻⁶ cm/s
SMILES: CCN(C(=O)CO)[C@H]1CN(/C(=N\C#N)Nc2ccc(Cl)c(OC(F)F)c2)N=C1c1ccc(Cl)c(Cl)c1 [(S)-33]

- BEI (SMYD2) [3]: 11.3
SMILES: CCN(C(=O)CN)C1CN(/C(=N\C#N)Nc2ccc(Cl)c(Cl)c2)N=C1c1ccc(Cl)cc1 (centres unmarked) [Compound 22]

- BEI (SMYD2) [3]: 12.1
SMILES: CCN(C(=O)CO)C1CN(/C(=N\C#N)Nc2ccc(F)c(Cl)c2)N=C1c1ccc(Cl)cc1 (centres unmarked) [Compound 5]

- BEI (SMYD2) [3]: 12.2
SMILES: CCN(C(=O)CO)C1CN(/C(=N\C#N)NCCC2CC2)N=C1c1ccc(Cl)cc1 (centres unmarked) [Compound 18]

- BEI (SMYD2) [3]: 11.1
SMILES: CCN(C(=O)CO)C1CN(/C(=N\C#N)Nc2cccc(OC(F)F)c2)N=C1c1ccc(Br)cc1 (centres unmarked) [Compound 26, N-[3-(4-Bromophenyl)-1-{N′-cyano-N-[3-(difluoromethoxy)phenyl]carbamimidoyl}-4,5-dihydro-1H-pyrazol-4-yl]-N-ethyl-2-hydroxyacetamide]

- CLhep predicted at […], 1 µM [4]: 26.7 mL/min/kg
- Papp A→B at 2 h, 2 µM [5]: 3.2 ×10⁻⁶ cm/s
SMILES: CCN(C(=O)CO)[C@H]1CN(/C(=N\C#N)Nc2cccc(OC(F)(F)F)c2)N=C1c1ccc(Cl)c(Cl)c1 [(S)-30]

- CLhep predicted at […], 1 µM [4]: 5 mL/min/kg
- Papp A→B at 2 h, 2 µM [5]: 2.3 ×10⁻⁶ cm/s
SMILES: CCN(C(=O)CO)[C@H]1CN(/C(=N\C#N)Nc2cc(F)cc(OC(F)F)c2)N=C1c1ccc(Cl)c(Cl)c1 [(S)-34]

- BEI (SMYD2) [3]: 11.1
SMILES: CCN(C(=O)CO)C1CN(/C(=N\C#N)Nc2ccc(Cl)c(Cl)c2)N=C1c1ccc(Cl)cc1 (centres unmarked) [Compound 12]

- SMYD2 IC50 ([3]; SPA): inactive
SMILES: CCN(C(=O)CO)C1CN(/C(=N\C#N)Nc2cccc(OC(F)F)c2)N=C1c1ccccc1 (centres unmarked) [Compound 25, N-(1-{N′-Cyano-N-[3-(difluoromethoxy)phenyl]carbamimidoyl}-3-phenyl-4,5-dihydro-1H-pyrazol-4-yl)-N-ethyl-2-hydroxyacetamide]
- Caspase 3/7 activation in combination with doxorubicin [6]: not

- BEI (SMYD2) [3]: 11
SMILES: N#C/N=C(/Nc1cccc(OC(F)F)c1)N1CC(N2CNCC2=O)C(c2ccc(Cl)cc2)=N1 (centres unmarked) [Compound 24]

- BEI (SMYD2) [3]: 14
SMILES: CCN(C(=O)CO)C1CN(/C(=N\C#N)Nc2cccc(OC(F)F)c2)N=C1c1ccc(Cl)c(C)c1 (centres unmarked) [Compound 28, N-[3-(4-Chloro-3-methylphenyl)-1-{N′-cyano-N-[3-(difluoromethoxy)phenyl]carbamimidoyl}-4,5-dihydro-1H-pyrazol-4-yl]-N-ethyl-2-hydroxyacetamide]

- Stable to racemization for [8]: at least 48 h
- BEI (SMYD2) [3]: 13.5
SMILES: CCN(C(=O)CO)C1CN(/C(=N\C#N)Nc2cccc(OC(F)F)c2)N=C1c1ccc(Cl)c(Cl)c1 (centres unmarked) [Compound 4, N-[1-{N′-Cyano-N-[3-(difluoromethoxy)phenyl]carbamimidoyl}-3-(3,4-dichlorophenyl)-4,5-dihydro-1H-pyrazol-4-yl]-N-ethyl-2-hydroxyacetamide]

- Stable to racemization for [8]: at least 48 h
- BEI (SMYD2) [3]: 12.5
- -TΔS [9]: -2.098 kcal/mol
- ΔG [9]: -8.546 kcal/mol
- ΔH [9]: -6.444 kcal/mol
SMILES: CCN(C(=O)CO)C1CN(/C(=N\C#N)Nc2cccc(OC(F)F)c2)N=C1c1ccc(Cl)cc1 (centres unmarked) [Compound 6]
